According to PMC6766518 (Physiological Reports, 2019):
Like-named read-outs stand apart in the source and are kept apart here.

Assays:
PTHR1 = target: T1, PTHR1 (Homo sapiens, UniProt Q03431); experiment: PathHunter eXpress PTHR1 CHO-K1 β-arrestin GPCR assay (β-arrestin recruitment); type: cell-based; details: CHO‐K1 cells; abaloparatide vs teriparatide; P = 0.02
T1 sequence (Q03431 27-593): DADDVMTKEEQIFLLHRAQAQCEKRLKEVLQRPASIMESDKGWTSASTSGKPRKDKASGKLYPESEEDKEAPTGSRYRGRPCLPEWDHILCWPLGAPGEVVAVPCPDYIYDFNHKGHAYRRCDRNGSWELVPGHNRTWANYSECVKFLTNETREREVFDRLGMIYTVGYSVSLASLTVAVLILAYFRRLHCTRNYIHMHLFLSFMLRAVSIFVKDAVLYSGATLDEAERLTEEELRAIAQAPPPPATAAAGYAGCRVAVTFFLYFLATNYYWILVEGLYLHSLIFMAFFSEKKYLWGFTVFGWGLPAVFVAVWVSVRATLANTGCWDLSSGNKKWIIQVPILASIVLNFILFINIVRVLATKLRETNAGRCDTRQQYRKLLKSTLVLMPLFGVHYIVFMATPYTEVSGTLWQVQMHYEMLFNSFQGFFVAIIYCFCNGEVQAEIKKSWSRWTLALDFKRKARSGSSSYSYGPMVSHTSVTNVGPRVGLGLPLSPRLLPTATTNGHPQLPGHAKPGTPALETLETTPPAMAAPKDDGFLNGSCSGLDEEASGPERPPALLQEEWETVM

patients = details: cited from earlier work
[1] = target: T2, PTHR1 (MC3T3‐E1 osteoblast cell line) (Mus musculus, UniProt P41593); experiment: Intracellular cAMP generation in MC3T3-E1 osteoblast cells; type: cell-based
T2 construct: host or cells: MC3T3-E1 subclone 4
T2 sequence (P41593 27-591): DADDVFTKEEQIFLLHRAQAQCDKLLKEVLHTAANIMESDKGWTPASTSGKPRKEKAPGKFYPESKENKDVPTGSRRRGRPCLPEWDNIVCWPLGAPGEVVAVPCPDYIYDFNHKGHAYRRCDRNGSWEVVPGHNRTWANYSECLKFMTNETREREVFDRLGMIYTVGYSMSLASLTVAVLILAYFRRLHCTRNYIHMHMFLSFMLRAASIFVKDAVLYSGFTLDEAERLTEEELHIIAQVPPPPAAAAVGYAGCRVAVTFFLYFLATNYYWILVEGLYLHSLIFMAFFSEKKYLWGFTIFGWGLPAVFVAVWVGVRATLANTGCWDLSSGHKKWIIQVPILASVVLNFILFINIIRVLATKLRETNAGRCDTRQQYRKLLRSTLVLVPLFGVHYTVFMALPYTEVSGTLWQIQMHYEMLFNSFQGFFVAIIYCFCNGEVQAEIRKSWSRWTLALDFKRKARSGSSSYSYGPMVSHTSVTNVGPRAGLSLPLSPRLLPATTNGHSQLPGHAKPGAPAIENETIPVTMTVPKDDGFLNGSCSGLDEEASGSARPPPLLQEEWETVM

[2] = system: female C57BL/6J mice (serum Ca^2+ and Pi); experiment: Serum Ca2+ and Pi, colorimetric; details: 80 µg/kg/day SC, 30 days; 24 h after last injection; vs vehicle; N = 5 mice/group
Method: All animal procedures were reviewed and approved by the Institutional Animal Care and Use Committee at James J. Peters Veterans Affairs Medical Center. […] No peptide injection was performed on the day of animal sacrifice.
Blood was collected and serum was separated as described above. Serum Ca^2+ and Pi concentrations were measured using colorimetric Ca^2+ and Pi assay kits (Cat numbers K380 and K410, respectively) as indicated by the manufacturer (BioVision, Milpitas, CA).
For in vivo studies, five mice/group were used. […] Statistical analyses were performed using GraphPad Prism and Microsoft excel. […] The results are presented as the means ± SD. […] For carrying out multiple group comparisons (all in vivo experiments), one‐way analysis of variance (ANOVA) was performed. When ANOVA indicated unequal means, Tukey's honestly significant difference (HSD) posthoc test was performed to determine which means were different to the level of significance. Statistical significance was considered when P value was less than 0.05 (P < 0.05).
Sera were collected at sacrifice (24 h after last injection) and levels of Ca^2+ and Pi were measured using specific colorimetric assays. (A) Serum Ca^2+ levels. (B) Serum Pi levels. The statistical designation directly listed on the top of each bar indicates the significance level in comparison to vehicle. […] The data in all graph are expressed as the means ± SD. […]

RANKL gene expression = details: in vivo and in vitro; ref Ricarte et al. 2018; cited from earlier work
Excerpt: PTHR1 is a member of subclass B seven transmembrane spanning GTP‐binding protein (G‐protein) coupled receptors (GPCR) that activates multiple G‐proteins, primarily the Gs but also Gq/11, Gi, and G12/13 G‐proteins. As a result, PTHR1 activation stimulates multiple downstream pathways and events such as Gs/adenylate cyclase/cAMP/protein kinase A, Gq11/phospholipase C/diacylglycerol‐inositol‐triphosphate‐Ca/protein kinase C, phospholipase D, and Src/β‐arrestin/MAPK pathways and PTHR1 phosphorylation and internalization (Abou‐Samra et al. 1992; Sneddon et al. 2000; Tawfeek et al. 2001; Tawfeek et ...

[3] = system: patients with osteoporosis; details: ref Neer et al. 2001, cited from earlier work
Excerpt: Human life expectancy has increased, thanks to the advances in medical research and the subsequent improvement in health care. As a result, there is a growing demand for better management of the common illnesses of the increasing elderly population. One of these illnesses, osteoporosis, is a common world‐wide bone disorder and a major public health threat for 44 million Americans, 68% of them being women. Osteoporosis accounts for an estimated 1.5 million fractures in the US every year costing over 14 billion dollars. Furthermore, the National Osteoporosis Foundation estimates that 50% of wome ...

CC[C@H](C)[C@H](NC(=O)[C@H](CO)NC(=O)[C@H](CCCCN)NC(=O)CNC(=O)[C@H](CCCCN)NC(=O)[C@H](CC(=O)O)NC(=O)[C@H](Cc1cnc[nH]1)NC(=O)[C@H](CC(C)C)NC(=O)[C@H](CC(C)C)NC(=O)[C@H](CCC(N)=O)NC(=O)[C@H](Cc1cnc[nH]1)NC(=O)[C@H](CCC(=O)O)NC(=O)[C@H](CO)NC(=O)[C@@H](NC(=O)[C@H](C)N)C(C)C)C(=O)N[C@@H](CCC(N)=O)C(=O)N[C@@H](CC(=O)O)C(=O)N[C@@H](CC(C)C)C(=O)N[C@@H](CCCNC(=N)N)C(=O)N[C@@H](CCCNC(=N)N)C(=O)N[C@@H](CCCNC(=N)N)C(=O)N[C@@H](CCC(=O)O)C(=O)N[C@@H](CC(C)C)C(=O)N[C@@H](CC(C)C)C(=O)N[C@@H](CCC(=O)O)C(=O)N[C@@H](CCCCN)C(=O)N[C@@H](CC(C)C)C(=O)N[C@@H](CC(C)C)C(=O)NC(C)(C)C(=O)N[C@@H](CCCCN)C(=O)N[C@@H](CC(C)C)C(=O)N[C@@H](Cc1cnc[nH]1)C(=O)N[C@H](C(=O)N[C@@H](C)C(N)=O)[C@@H](C)O [abaloparatide]
EC50 for β‐arrestin recruitment lower than that of teriparatide (PTHR1): 1.6 fold | Patients with hypercalcemia (patients; human, in vivo): 3.4% | EC50 ([1]; 0.01–100 nmol/L, 40 min at 37°C, 0.5 mmol/L IBMX, cAMP competitive ELISA, mean ± SD, three independent experiments, p = 0.02 between analogs, read-out: EC50 for cAMP formation): 0.3 ± 0.03 nM | Decrease in EC50 value for cAMP formation compared to teriparatide ([1]; abaloparatide vs teriparatide, p = 0.02): 2.3 fold

CC[C@H](C)[C@H](NC(=O)[C@H](CCC(=O)O)NC(=O)[C@H](CO)NC(=O)[C@@H](NC(=O)[C@@H](N)CO)C(C)C)C(=O)N[C@@H](CCC(N)=O)C(=O)N[C@@H](CC(C)C)C(=O)N[C@@H](CCSC)C(=O)N[C@@H](Cc1cnc[nH]1)C(=O)N[C@@H](CC(N)=O)C(=O)N[C@@H](CC(C)C)C(=O)NCC(=O)N[C@@H](CCCCN)C(=O)N[C@@H](Cc1cnc[nH]1)C(=O)N[C@@H](CC(C)C)C(=O)N[C@@H](CC(N)=O)C(=O)N[C@@H](CO)C(=O)N[C@@H](CCSC)C(=O)N[C@@H](CCC(=O)O)C(=O)N[C@@H](CCCN=C(N)N)C(=O)N[C@H](C(=O)N[C@@H](CCC(=O)O)C(=O)N[C@@H](Cc1c[nH]c2ccccc12)C(=O)N[C@@H](CC(C)C)C(=O)N[C@@H](CCCN=C(N)N)C(=O)N[C@@H](CCCCN)C(=O)N[C@@H](CCCCN)C(=O)N[C@@H](CC(C)C)C(=O)N[C@@H](CCC(N)=O)C(=O)N[C@@H](CC(=O)O)C(=O)N[C@H](C(=O)N[C@@H](Cc1cnc[nH]1)C(=O)N[C@@H](CC(N)=O)C(=O)N[C@@H](Cc1ccccc1)C(=O)O)C(C)C)C(C)C [teriparatide]
Patients with hypercalcemia (patients; transient and infrequent event, ref Miller et al. 2018): 6.4% | Elevation in serum Pi [2]: 50%

PTH: PTH as administered in cited studies; context points to the amino‐terminal fragment PTH1‐34 (SVSEIQLMHNLGKHLNSMERVEWLRKKLQDVHNF; Parathyroid hormone; UniProt P01270 32-65, looked up, fragment)
RANKL gene expression (RANKL gene expression): larger RANKL gene expression in vivo and in vitro | Increase in BMD in spine and femur versus bisphosphonates ([3]; men and women with osteoporosis): more efficiently than treatment with bisphosphonates | Decrease in risk of vertebral and nonvertebral fractures [3]: more than 50%
